Measurements: US20050096331A1, “Novel compounds and their use in medicine process for their preparation and pharmaceutical compositions containing them” (priority 2001, published 2005)

Legend:
[1] = tested on: C57BL/KsJ-db/db mice; experiment: Efficacy in genetic models: blood sugar and triglyceride lowering in db/db mice; format: in vivo, mouse
Text: Mutation in colonies of laboratory animals and different sensitivities to dietary regimens have made the development of animal models with non-insulin dependent diabetes and hyperlipidemia associated with obesity and insulin resistance possible. Genetic models such as db/db and ob/ob (Diabetes, (1982) 31(1): 1-6) mice and zucker fa/fa rats have been developed by the various laboratories for understanding the pathophysiology of disease and testing the efficacy of new antidiabetic compounds (Diabetes, (1983) 32: 830-838; Annu. Rep. Sankyo Res. Lab. (1994). 46: 1-57). The homozygous animals, C57 BL/KsJ-db/db mice developed by Jackson Laboratory, US, are obese, hyperglycemic, hyperinsulinemic and insulin resistant (J. Clin. Invest., (1990) 85: 962-967), whereas heterozygous are lean and normoglycemic. In db/db model, mouse progressively develops insulinopenia with age, a feature commonly observed in late stages of human type II diabetes when blood sugar levels are insufficiently controlled. The state of pancreas and its course vary according to the models. Since this model resembles that of type II diabetes mellitus, the compounds of the present invention were tested for blood sugar and triglycerides lowering activities.
Male C57BL/KsJ-db/db mice of 8 to 14 weeks age, having body weight range of 35 to 60 grams, bred at Dr. Reddy's Research Foundation (DRF) animal house, were used in the experiment The mice were provided with standard feed (National Institute of Nutrition (NIN), Hyderabad, India) and acidified water, ad libitum. The animals having more tan 350 mg/dl blood sugar were used for testing. The number of animals in each group was 4.
Test compounds were suspended on 0.25% carboxymethyl cellulose and administered to test group at a dose of 0.1 mg to 30 mg/kg through oral gavage daily for 6 days. The control group received vehicle (dose 10 ml/kg). On 6th day the blood samples were collected one hour after administration of test compounds/vehicle for assessing the biological activity.
The random blood sugar and triglyceride levels were measured by collecting blood (100 μl) through orbital sinus, using heparinised capillary in tubes containing EDTA which was centrifuged to obtain plasma. The plasma glucose and triglyceride levels were measured spectrometrically, by glucose oxidase and glycerol-3-PO4 oxidase/peroxidase enzyme (Dr. Reddy's Lab. Diagnostic Division Kits, Hyderabad, India) methods respectively.
The blood sugar and triglycerides lowering activities of the test compound was calculated according to the formula.
(§1) • 1. Percent reduction in Blood sugar/triglycerides/total cholesterol were calculated according to the formula: [formula] • OC=Zero day control group value • OT=Zero day treated group value • TC=Test day control group value • TT=Test day treated group value • 2. LDL and VLDL cholesterol levels were calculated according to the formula: [formula] [formula]

[2] = molecular target: T1, hPPARγ1 (Homo sapiens, UniProt P37231); experiment: Determination of hPPARγ activity (GAL4 luciferase reporter transactivation); format: cell-based; conditions: compound at 1 μM; luciferase activity in transfected HEK-293 cells
T1 construct: expressed in transfected cells; host or cells: HEK-293
T1 sequence (P37231 238-503 limits assumed): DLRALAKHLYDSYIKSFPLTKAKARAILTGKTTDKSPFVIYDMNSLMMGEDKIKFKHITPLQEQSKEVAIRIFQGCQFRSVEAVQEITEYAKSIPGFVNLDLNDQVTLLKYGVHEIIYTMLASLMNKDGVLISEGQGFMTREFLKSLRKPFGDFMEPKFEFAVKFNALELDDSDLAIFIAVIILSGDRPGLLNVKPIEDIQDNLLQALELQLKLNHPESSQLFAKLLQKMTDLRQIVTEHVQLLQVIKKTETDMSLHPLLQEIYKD
Method: Ligand binding domain of hPPARγ1 was fused to DNA binding domain of Yeast transcription factor GAL4 in eucaryotic expression vector. Using lipofectamine (Gibco BRL, USA) as transfecting reagent HEK-293 cells were transfected with this plasmid and a reporter plasmid harboring the luciferase gene driven by a GAL4 specific promoter. Compound was added at 1 μM concentration after 48 hrs of transfection and incubated overnight. Luciferase activity as a function of drug binding/activation capacity of PPARγ1 was measured using Packard Luclite kit (Packard, USA) in Packard Top Count (Ivan Sadowski, Brendan Bell, Peter Broag and Melvyn Hollis. Gene 1992, 118: 137-141; Guide to Eukaryotic Transfections with Cationic Lipid Reagents. Life Technologies, GIBCO BRL, USA).

[3] = molecular target: T2, hPPARα (Homo sapiens, UniProt Q07869); experiment: Determination of hPPARα activity (GAL4 luciferase reporter transactivation); format: cell-based; conditions: compound at 50 μM; luciferase activity in transfected HEK-293 cells
T2 construct: expressed in transfected cells; host or cells: HEK-293
T2 sequence (Q07869 239-466 limits assumed): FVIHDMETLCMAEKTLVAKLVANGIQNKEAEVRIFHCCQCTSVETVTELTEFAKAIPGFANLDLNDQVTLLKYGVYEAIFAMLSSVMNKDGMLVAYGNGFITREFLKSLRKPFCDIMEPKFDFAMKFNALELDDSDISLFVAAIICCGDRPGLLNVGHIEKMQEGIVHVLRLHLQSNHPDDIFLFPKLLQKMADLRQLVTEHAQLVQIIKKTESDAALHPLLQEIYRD
Method: Ligand binding domain of hPPARα was fused to DNA binding domain of Yeast transcription factor GAL4 in eucaryotic expression vector. Using superfect (Qiagen, Germany) as transfecting reagent HEK-293 cells were transfected with this plasmid and a reporter plasmid harboring the luciferase gene driven by a GAL4 specific promoter. Compound was added at different concentrations after 42 hrs of transfection and incubated overnight. Luciferase activity as a function of compound binding/activation capacity of PPARα was measured using Packard Luclite kit (Packard, USA) in Top Count (Ivan Sadowski, Brendan Bell, Peter Broag and Melvyn Hollis. Gene 1992, 118: 137-141; Superfect Transfection Reagent Handbook. February 1997. Qiagen, Germany).

[4] = tested on: Swiss albino mice; experiment: Plasma triglyceride and total cholesterol lowering activity in Swiss albino mice and Guinea pigs; format: in vivo, mouse; conditions: 6 days
Method: Male Swiss albino mice (SAM) and male Guinea pigs were obtained from NIN and housed in DRF animal house. All these animals were maintained under 12 hour light and dark cycle at 25±1° C. Animals were given standard laboratory chow (NIN, Hyderabad, India) and water, ad libitum. SAM of 20-25 g body weight range and Guinea pigs of 500-700 g body weight range were used (Oliver, P., Plancke, M. O., Marzin, D., Clavey, V., Sauzieres, J and Fruchart, J. C. Effects of fenofibrate, gemfibrozil and nicotinic acid on plasma lipoprotein levels in normal and hyperlipidemic mice. Atherosclerosis. 1988. 70: 107-114).
The test compounds were administered orally to Swiss albino mice at 0.3 to 30 mg/kg/day dose for 6 days. Control mice were treated with vehicle (0.25% Carboxymethylcellulose; dose 10 ml/kg). The test compounds were administered orally to Guinea pigs at […] dose for 6 days. Control animals were treated with vehicle (0.25% Carboxymethylcellulose; dose 5 ml/kg).
The blood samples were collected in fed state 1 hour after drug administration on 0 and 6 day of treatment. The blood was collected from the retro-orbital sinus through heparinised capillary in EDTA containing tubes. After centrifugation, plasma sample was separated for triglyceride and total cholesterol (Wieland, O. Methods of Enzymatic analysis. Bergermeyer, H. O., Ed., 1963. 211-214; Trinder, P. Ann. Clin. Biochem 1969, 6: 24-27). Measurement of plasma triglyceride, total cholesterol and HDL were done using commercial kits (Dr. Reddy's Diagnostic Division, Hyderabad, India).
as §1

[5] = 3 mg/kg oral gavage daily for 6 days
[6] = 10 mg/kg oral gavage daily for 6 days

CCCc1nn(C)c2c(OCCOc3ccc(CC(OCC)C(=O)OCC)cc3)nc(C)nc12 (stereo in doubt) [Example 5, Ethyl 2(S)-3-[4-{2-1,5-dimethyl-3-propyl-1H-pyrazolo[4,3-dipyrimidin-7-yloxy)ethoxy}phenyl]-2-ethoxypropanoate]
Reduction in Blood Glucose Level (%) [1, 5]: 61% | Triglyceride Lowering (%) [1, 5]: 51%

CCCc1nn(C)c2c(OCCOc3ccc(C[C@H](OCC)C(=O)O)cc3)nc(CC)nc12 [Example 4b, 2(S)-2-Ethoxy-3-[4-{2-(5-ethyl-1-methyl-3-propyl-1H-pyrazolo[4,3-d]pyrimidin-7-yloxy)ethoxy}phenyl]propanoic Acid]
Reduction in Blood Glucose Level (%) [1, 6]: 56% | Triglyceride Lowering (%) [1, 6]: 17% | PPARγ [2]: 6.9 | PPARα [3]: 5.1

CCCCCCCN(C(=O)COc1nc(CC)nc2c(CCC)nn(C)c12)c1ccc(SC(CCC)C(=O)O)cc1 (stereo not shown) [Example 2, 2-[4-(5-Ethyl-1-methyl-3-propyl-1H-pyrazolo[4,3-d]pyrimidin-7-yloxymethyl-(heptyl)carboxamido)phenylsulfanyl]pentanoic Acid]
PPARγ [2]: 1.4 | PPARα [3]: 2.7

CCCc1nn(C)c2c(OCCOc3ccc(C[C@H](OCC)C(=O)O)cc3)nc(C3CC3)nc12 [Example 10, (2S)-3-[4-{2-(5-Cyclopropyl-1-methyl-3-propyl-1H-pyrazolo[4,3-d]pyrimidin-7-yloxy)ethoxy}phenyl]-2-ethoxypropanoic Acid]
Triglyceride Lowering (%) ([4]; 3 mg/kg orally): 42%

CCCc1nn(C)c2c(OCCOc3ccc(CC(OCC)C(=O)OCC)cc3)nc(-c3ccccc3)nc12 (stereo not shown) [Example 7, Ethyl 2-ethoxy-3-[4-{2-(1-methyl-5-phenyl-3-propyl-1H-pyrazolo-[4,3-d]-pyrimidin-7-yloxy)ethoxy}phenyl]propanoate]
Triglyceride Lowering (%) ([4]; 3 mg/kg orally): 43%

CCCc1nn(C)c2c(OCCOc3ccc(C[C@H](OCC)C(=O)OC)cc3)nc(CC)nc12 [Example 4a, Methyl 2(S)-2-ethoxy-3-[4-{2-(5-ethyl-1-methyl-3-propyl-1H-pyrazolo [4,3-d]-pyrimidin-7-yloxy)ethoxy}phenyl]propanoate]
Reduction in Blood Glucose Level (%) [1, 6]: 48% | Triglyceride Lowering (%) [1, 6]: 69%

CCCc1nn(C)c2c(OCCOc3ccc(CC(OCC)C(=O)O)cc3)nc(-c3ccccc3)nc12 (stereo not shown) [Example 8, 3-[4-{2-(1-Methyl-5-phenyl-3-propyl-1H-pyrazolo-14,3-d]pyrimidin-7-yloxy)ethoxy}phenyl-2-ethoxypropanoic Acid]
Triglyceride Lowering (%) ([4]; 10 mg/kg orally): 61%
